{"source": "patent US6703506B2", "about": "“Amino acid ester containing azole antifungals” (Janssen Pharmaceutica, N.V., priority 1997, dated 2004)", "key": {"[1]": {"assay": "Chemical stability (open glass jar, 40° C., 75% relative humidity)", "assay_type": "physicochemical", "settings": "50 mg, after one week", "method": "After one week, the amount of test compound remaining was determined."}, "Candida albicans [2]": {"system": "Candida albicans", "assay": "Disseminated candidosis in guinea-pigs", "assay_type": "in vivo", "settings": "for CFU/g (liver): culture-positive livers post mortem; for % neg (total percentage culture-negative deep tissues): liver, spleen, kidney, lung and brain", "method": "(§1) Specific pathogen-free (SPF) guinea-pigs (weighing 400-500 g) were used in all experiments. A catheter was placed into the left jugular vein of the animals that were treated by intravenous infusion, the vein was ligated, and the catheter was connected to a microprocessor-controlled infusion pump. The animals were infected with Aspergillus fumigatus (4,000 CFU/g body weight) or with Candida albicans (40,000 CFU/g body weight) either via the lateral vein of the penis or via the implanted catheter. Intravenous treatments (5 mg/kg/day) began 1 hour after infection. The test formulations were then administered on subsequent days as two, 1 hour infusions daily, separated by a period of 5 hours, for a total of 19 infusions or 9.5 days. Oral treatments with the test compounds (5 mg/kg/day) begun 1 hour after infection and were repeated twice daily up to the tenth day after infection (a total of 19 treatments. For each group of tested animals (number of tested animals per group given in column “N”), the mean survival time (MST) in days was recorded as well as the % survivors (% surv). Animals of each group which died during the experiment and those that survived the experiment and were killed, were investigated for counts of Aspergillus fumigatus and Candida albicans in deep tissue (liver, spleen, kidney, lung and brain) post mortem. The remaining CFU/g in the culture-positive livers was measured and expressed in table 9 (after intravenous treatment) and table 10 (after oral treatment) as mean log10 CFU/g. The columns “%neg” in tables 9 and 10 express the total percentage culture-negative deep tissues after the treatment."}, "Candida albicans [3]": {"system": "Candida albicans", "assay": "Determination of fungal susceptibility (MIC)", "assay_type": "cell-based", "settings": "CYG medium, 2 days at 37° C., growth to 35% of control or less", "method": "(§2) A panel of Candida isolates plus single isolates of the dermatophytes Microsporum canis, Trichophyton rubrum and T. mentagrophytes; Aspergillus fumigates, and Cryptococcus neoformans were used to evaluate the activity of the test compounds in vitro. Inocula were prepared as broth cultures (yeasts) or as suspensions of fungal material made from agar slope cultures (moulds). The test compounds were pipetted from DMSO stock solution into water to provide a series of 10-fold dilutions. The fungal inocula were suspended in the growth medium CYG (F. C. Odds, Journal of Clinical Microbiology, 29, (2735-2740, 1991) at approximately 50,000 colony-forming units (CFU) per ml and added to the aqueous test drugs. The cultures were set up in the 96 wells of plastic microdilution plates and they were incubated for 2 days at 37° C. (Candida spp.) or for 5 days at 30° C. (other fungi). Growth in the microcultures was measured by their optical density (OD) measured at a wavelength of 405 nm. The OD for cultures with test compounds was calculated as a percentage of the control, drug-free OD. Inhibition of growth to 35% of control or less was recorded as significant inhibition.\n(§3) Minimal inhibitory concentration (MICs; in 10^−6 M) of intermediate 2 as the major metabolite and some of the compounds of formula (I) for Candida glabrata, Candida krusel, Candida parapsilosis, Candida albicans, Candida kefyr, Candida tropicalis, Microsporum canis, Trichophyton rubrum, Trichophyton mentagrophytes, Cryptococcus neoformans, Aspergillus fumigatus are listed in table 8."}, "Candida tropicalis": {"system": "Candida tropicalis", "assay": "Determination of fungal susceptibility (MIC)", "assay_type": "cell-based", "settings": "CYG medium, 2 days at 37° C., growth to 35% of control or less", "method": "as §2, §3"}, "Candida parapsilosis": {"system": "Candida parapsilosis", "assay": "Determination of fungal susceptibility (MIC)", "assay_type": "cell-based", "settings": "CYG medium, 2 days at 37° C., growth to 35% of control or less", "method": "as §2, §3"}, "Aspergillus fumigatus [4]": {"system": "Aspergillus fumigatus", "assay": "Determination of fungal susceptibility (MIC)", "assay_type": "cell-based", "settings": "CYG medium, 5 days at 30° C., growth to 35% of control or less", "method": "as §2, §3"}, "[5]": {"system": "Trichophyton mentagrophytes", "assay": "Determination of fungal susceptibility (MIC)", "assay_type": "cell-based", "settings": "CYG medium, 5 days at 30° C., growth to 35% of control or less", "method": "as §2, §3"}, "Cryptococcus neoformans": {"system": "Cryptococcus neoformans", "assay": "Determination of fungal susceptibility (MIC)", "assay_type": "cell-based", "settings": "CYG medium, 5 days at 30° C., growth to 35% of control or less", "method": "as §2, §3"}, "Candida krusei": {"system": "Candida krusei", "assay": "Determination of fungal susceptibility (MIC)", "assay_type": "cell-based", "settings": "CYG medium, 2 days at 37° C., growth to 35% of control or less", "method": "as §2, §3"}, "Trichophyton rubrum": {"system": "Trichophyton rubrum", "assay": "Determination of fungal susceptibility (MIC)", "assay_type": "cell-based", "settings": "CYG medium, 5 days at 30° C., growth to 35% of control or less", "method": "as §2, §3"}, "Microsporum canis": {"system": "Microsporum canis", "assay": "Determination of fungal susceptibility (MIC)", "assay_type": "cell-based", "settings": "CYG medium, 5 days at 30° C., growth to 35% of control or less", "method": "as §2, §3"}, "Candida kefyr": {"system": "Candida kefyr", "assay": "Determination of fungal susceptibility (MIC)", "assay_type": "cell-based", "settings": "CYG medium, 2 days at 37° C., growth to 35% of control or less", "method": "as §2, §3"}, "Candida glabrata": {"system": "Candida glabrata", "assay": "Determination of fungal susceptibility (MIC)", "assay_type": "cell-based", "settings": "CYG medium, 2 days at 37° C., growth to 35% of control or less", "method": "as §2, §3"}, "[6]": {"assay": "Solubility (excess compound shaken 1 day at room temperature, HPLC)", "assay_type": "physicochemical", "settings": "thermodynamic from solid", "method": "An excess of compound was added to the solvent (the type of solvent is specified in table 6) The mixture was shaken during 1 day at room temperature. The precipitate was filtered off. The concentration of the compound was measured via HPLC and is shown in the column “Solubility”."}, "Aspergillus fumigatus [7]": {"system": "Aspergillus fumigatus", "assay": "Disseminated aspergillosis in guinea-pigs", "assay_type": "in vivo", "settings": "for CFU/g (liver): culture-positive livers post mortem; for % neg (total percentage culture-negative deep tissues): liver, spleen, kidney, lung and brain", "method": "as §1"}, "[8]": {"settings": "i.v. treatment 5 mg/kg/day, 19 infusions, 9.5 days"}, "[9]": {"settings": "oral treatment 5 mg/kg/day, twice daily, 19 treatments"}}, "data": [{"smiles": "C[C@H](OC(=O)[C@@H](N)Cc1ccccc1)[C@H](C)n1ncn(-c2ccc(N3CCN(c4ccc(OC[C@@H]5CO[C@@](Cn6cncn6)(c6ccc(F)cc6F)O5)cc4)CC3)cc2)c1=O", "note": "(relative stereo) [Compound 23, [2S-[2α,4α[(R*,R*)]]]-2-[4-[4-[4-[4-[[2-(2,4-difluorophenyl)-2-(1H-1,2,4-triazol-1-ylmethyl)-1,3-dioxolan-4-yl]methoxy]-phenyl]-1-piperazinyl]-phenyl]-4,5-dihydro-5-oxo-1H-1,2,4-triazol-1-yl]-1-methylpropyl L-phenylalanine]", "values": [{"measurement": "Stability (amount of test compound remaining)", "setting": "[1]", "result": 99.7, "unit": "%"}, {"measurement": "CFU/g (liver)", "setting": "Candida albicans [2]; i.v. treatment 5 mg/kg/day", "result": 0, "unit": "mean log10 CFU/g"}, {"measurement": "CFU/g (liver)", "setting": "Candida albicans [2]; oral treatment 5 mg/kg/day", "result": 0, "unit": "mean log10 CFU/g"}, {"measurement": "% surv (% survivors)", "setting": "Candida albicans [2]; [8]", "result": 83.3, "unit": "%"}, {"measurement": "MST (mean survival time)", "setting": "Candida albicans [2]; [8]", "result": 9.8, "unit": "days"}, {"measurement": "% neg (total percentage culture-negative deep tissues)", "setting": "Candida albicans [2]; i.v. treatment 5 mg/kg/day", "result": 79, "unit": "%"}, {"measurement": "% neg (total percentage culture-negative deep tissues)", "setting": "Candida albicans [2]; oral treatment 5 mg/kg/day", "result": 73, "unit": "%"}, {"measurement": "% surv (% survivors)", "setting": "Candida albicans [2]; [9]", "result": 100, "unit": "%"}, {"measurement": "MST (mean survival time)", "setting": "Candida albicans [2]; [9]", "result": 10, "unit": "days"}, {"measurement": "MIC", "setting": "Candida albicans [3]", "result": "<0.1 10^−6 M"}, {"measurement": "MIC", "setting": "Candida tropicalis", "result": "<0.1 10^−6 M"}, {"measurement": "MIC", "setting": "Candida parapsilosis", "result": "<0.1 10^−6 M"}, {"measurement": "MIC", "setting": "Aspergillus fumigatus [4]", "result": "1 10^−6 M"}, {"measurement": "MIC", "setting": "[5]", "result": "1 10^−6 M"}, {"measurement": "MIC", "setting": "Cryptococcus neoformans", "result": "1 10^−6 M"}, {"measurement": "MIC", "setting": "Candida krusei", "result": "1 10^−6 M"}, {"measurement": "MIC", "setting": "Trichophyton rubrum", "result": "<0.1 10^−6 M"}, {"measurement": "MIC", "setting": "Microsporum canis", "result": "<1 10^−6 M"}, {"measurement": "MIC", "setting": "Candida kefyr", "result": "<0.1 10^−6 M"}, {"measurement": "MIC", "setting": "Candida glabrata", "result": "10 10^−6 M"}, {"measurement": "solubility at 1 day", "setting": "[6]; aqueous buffer, solvent 0.0001M HCl, final pH in column pH of the same row (3.17-6.68)", "result": 20, "unit": "µg/mL"}, {"measurement": "solubility at 1 day", "setting": "[6]; simulated gastric fluid, solvent 0.1M HCl, final pH in column pH of the same row (1.23-1.55)", "result": "> 5560", "unit": "µg/mL"}, {"measurement": "CFU/g (liver)", "setting": "Aspergillus fumigatus [7]; i.v. treatment 5 mg/kg/day", "result": 3.6, "unit": "mean log10 CFU/g"}, {"measurement": "CFU/g (liver)", "setting": "Aspergillus fumigatus [7]; oral treatment 5 mg/kg/day", "result": 3.0, "unit": "mean log10 CFU/g"}, {"measurement": "% surv (% survivors)", "setting": "Aspergillus fumigatus [7]; [8]", "result": 83.3, "unit": "%"}, {"measurement": "MST (mean survival time)", "setting": "Aspergillus fumigatus [7]; [8]", "result": 9.2, "unit": "days"}, {"measurement": "% neg (total percentage culture-negative deep tissues)", "setting": "Aspergillus fumigatus [7]; i.v. treatment 5 mg/kg/day", "result": 71, "unit": "%"}, {"measurement": "% neg (total percentage culture-negative deep tissues)", "setting": "Aspergillus fumigatus [7]; oral treatment 5 mg/kg/day", "result": 55, "unit": "%"}, {"measurement": "% surv (% survivors)", "setting": "Aspergillus fumigatus [7]; [9]", "result": 30, "unit": "%"}, {"measurement": "MST (mean survival time)", "setting": "Aspergillus fumigatus [7]; [9]", "result": 7.8, "unit": "days"}]}]}
